Results on one compound are retold here after article PMC8684776, “Discovery and characterization of potent And‐1 inhibitors for cancer treatment” (Clinical and Translational Medicine, 2021).

One experiment deals with MCF7 xenografts. Put plainly: MCF7 xenograft in nude mice. Format: in vivo, mouse. The protocol:
(A) Tumours of IGROV1 xenograft treated with vehicle or CH3 (20 or 40 mg/kg/3days intraperitoneally) for 3 weeks. Ruler scale is in centimeters. (B) Growth curves of IGROV1 xenografts. Data are represented as means ± SEM. ****p < 0.0001. (C) IHC staining against acidic nucleoplasmic DNA‐binding protein 1 (And‐1) and cleaved‐caspase3 antibodies of tumor samples from 3 groups of mice. Scale bar: 50 μm. Lower panel, quantification of And‐1and cleaved‐caspase 3 IHC score in tumors treated in A. ****p < 0.0001. (D) Tumors of MCF7 xenograft treated with vehicle or CH3 (20 or 40 mg/kg/3days intraperitoneally) for 3 weeks. Ruler scale is in centimeters. (E) Growth curves of MCF7 xenografts. Data are represented as means ± SEM. ****p < 0.0001. (F) IHC staining against And‐1 and cleaved‐caspase3 antibodies of tumor samples from three treated groups of mice. Scale bar: 50 μm. Lower panel, quantification of And‐1and cleaved‐caspase 3 IHC score in tumors treated in (D). *p < 0.1; **p < 0.01; ***p < 0.001; ****p < 0.0001
into subsequent experiment groups.
represent the longest and shortest diameters, respectively. During the drug treatment, the tumor volume
and body weight were measured. […]

The next experiment relates to IGROV1 CR cells. Kind of experiment: Clonogenic assay, combination with cisplatin. The format is cell-based, human. Here is the method: Synergy of each combination was indicated as combination index (CI) values. […] (C) Tumors of IGROV1 CR xenograft treated with control (vehicle), cisplatin (8 mg/kg/day intraperitoneally), CH3 (20 mg/kg/3days intraperitoneally), or a combination of CH3 and cisplatin for 3 weeks. Ruler scale is in centimeters. (D) Growth curves of IGROV1 CR xenografts. […] (E) IHC staining against And‐1 antibodies of tumor samples from four treated groups of mice. Scale bar: 50 μm. […] Ruler scale is in centimeters. (G) Growth curves of IGROV1 CR xenografts. […] (H) IHC staining against And‐1 antibodies of tumor samples from four treated groups of mice. Scale bar: 50 μm.

Another experiment has as its target T1, And‐1 (Homo sapiens, UniProt O75717).
T1 construct: expressed in transfected cells
T1 sequence (O75717 1-1129): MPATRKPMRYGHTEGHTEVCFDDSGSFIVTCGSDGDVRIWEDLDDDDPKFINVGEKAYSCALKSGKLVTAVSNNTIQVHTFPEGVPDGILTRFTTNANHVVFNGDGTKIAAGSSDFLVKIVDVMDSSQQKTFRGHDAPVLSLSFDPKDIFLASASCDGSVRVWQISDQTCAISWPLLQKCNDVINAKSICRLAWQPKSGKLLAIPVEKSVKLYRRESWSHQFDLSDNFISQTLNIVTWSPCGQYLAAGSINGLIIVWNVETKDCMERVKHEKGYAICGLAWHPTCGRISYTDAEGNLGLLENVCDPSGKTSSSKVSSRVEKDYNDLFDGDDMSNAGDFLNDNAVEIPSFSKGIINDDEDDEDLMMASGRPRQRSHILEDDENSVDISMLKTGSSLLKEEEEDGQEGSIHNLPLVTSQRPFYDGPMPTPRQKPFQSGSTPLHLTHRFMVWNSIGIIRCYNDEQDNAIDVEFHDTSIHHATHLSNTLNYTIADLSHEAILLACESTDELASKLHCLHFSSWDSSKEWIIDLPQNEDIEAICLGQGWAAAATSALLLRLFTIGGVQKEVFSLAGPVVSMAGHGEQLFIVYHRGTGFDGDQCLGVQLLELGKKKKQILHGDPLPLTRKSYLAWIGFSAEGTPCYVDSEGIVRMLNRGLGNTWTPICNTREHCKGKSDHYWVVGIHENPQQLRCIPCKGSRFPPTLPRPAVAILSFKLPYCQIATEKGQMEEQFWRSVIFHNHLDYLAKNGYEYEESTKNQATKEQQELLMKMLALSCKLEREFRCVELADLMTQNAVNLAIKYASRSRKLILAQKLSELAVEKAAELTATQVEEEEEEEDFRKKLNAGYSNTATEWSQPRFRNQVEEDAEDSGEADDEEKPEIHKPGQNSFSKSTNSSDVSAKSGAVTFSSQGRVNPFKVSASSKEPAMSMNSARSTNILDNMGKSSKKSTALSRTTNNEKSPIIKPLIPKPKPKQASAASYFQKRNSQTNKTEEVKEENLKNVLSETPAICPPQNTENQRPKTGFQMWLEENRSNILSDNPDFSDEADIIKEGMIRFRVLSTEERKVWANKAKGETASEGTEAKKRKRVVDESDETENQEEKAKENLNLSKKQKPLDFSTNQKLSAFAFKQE
Put plainly: Immunoblot of And‐1 expression in IGROV1 cells. As to conditions: read-out: IC50, And‐1 expression. The format is cell-based. The text has this:
The assay was as previously described.[45]
To evaluate whether And‐1 is required for tumor survival, we examined the dependence of a broad range of tumor cells on And‐1 by using dependency score analysis from DepMap (https://depmap.org/portal/). […] To identify And‐1 specific pharmacologic inhibitor, we established an HTS assay to identify small molecules that can inhibit And‐1 by inducing its degradation. To this end, we first established two stable cell lines, HEK293T‐And‐1‐Luc expressing And‐1 protein fused to a luciferase reporter gene, and HEK293T‐Luc expressing luciferase only (Figure 1B). HEK293T‐And‐1‐Luc cells allow us to monitor And‐1 protein levels by measuring luciferase activity in a high‐throughput manner. Using these cell lines, we conducted a screening for And‐1 inhibitors against a LOPAC small molecule library by using a quantitative HTS (qHTS) as we described previously.[46]
(A) Dependency score of WDHD1/And‐1 analyzed by DepMap. […] (B) Establishment of HEK293T‐And‐1‐Luc and HEK293T‐Luc cells for the high‐throughput screen (HTS). (C) Schematic diagram of quantitative HTS (qHTS) for And‐1 inhibitors. (D) Immunoblot analyses to detect And‐1 expression in IGROV1 cells treated with resveratrol at indicated concentrations. (E) Chemical structures of resveratrol and its three analogs as indicated. (F) Left, immunoblot analyses to detect And‐1 expression in IGROV1 cells treated with And‐1 inhibitors at the indicated concentration. Right, quantification of And‐1 expression shown in the left panel.
In general terms: In western blotting, separated proteins are transferred to a membrane and probed.

The next experiment has as its system IGROV1 cells. Kind of experiment: Flow cytometry cell cycle analysis (propidium iodide). To be noted: 1 µM, FACS. The format is cell-based, human. The source says: And‐1 is involved in DNA replication in the S‐phase and is required for the S‐phase progression.[15] We assumed that And‐1 inhibitors should be able to inhibit DNA replication by targeting And‐1.
Supplementary Figure S1. Identification of novel And-1 inhibitors. […]
Molecular weight of each compound was indicated. (C) Flow cytometry
For orientation: In flow cytometry, cells or beads pass a laser one at a time.

Regarding `OB1OCc2cc(/C=C/c3ccc(Cl)c(Cl)c3)ccc21` [CH3, (E)‐5‐(3,4‐dichlorostyryl)benzo[c][1,2]oxaborol‐1(3H)‐ol], in the experiment with MCF7 xenografts (MCF7 xenograft tumors), the “And‐1 expression in tumor tissues (IHC)” value is listed as “inhibited And‐1 expression” and the “cleaved caspase‐3 expression in tumor tissues (IHC)” value was “induced the expression of cleaved caspase‐3”. Further, in the experiment with MCF7 xenografts (breast MCF7 xenografts, nude mice, 20 mg/kg or 40 mg/kg intraperitoneal, 3 weeks), the tumor growth result is “significantly reduced tumor growth”. The “synergy with cisplatin to reduce clonogenic capacity” value in the experiment on IGROV1 CR cells is “great synergy with cisplatin”. The DC50 on And‐1 turned out to be 2080 nM. The “percentage of cells in the S‐phase” value with IGROV1 cells was “reduced the percentage of cells in the S‐phase”.
